One test addresses T1, SHP-1 (Homo sapiens, UniProt P29350).
T1 construct: using the catalytic core of a human recombinant PTP as the enzyme
T1 sequence (P29350 244-515 limits assumed): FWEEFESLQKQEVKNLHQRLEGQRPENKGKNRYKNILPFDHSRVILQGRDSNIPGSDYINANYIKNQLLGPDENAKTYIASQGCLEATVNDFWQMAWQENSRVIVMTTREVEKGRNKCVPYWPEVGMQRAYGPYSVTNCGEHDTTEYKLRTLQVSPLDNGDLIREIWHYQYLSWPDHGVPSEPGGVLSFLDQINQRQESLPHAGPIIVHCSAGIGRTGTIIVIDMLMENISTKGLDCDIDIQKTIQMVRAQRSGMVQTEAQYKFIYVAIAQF
Put plainly: PTP Enzyme Assay (DiFMUP), SHP-1. It counts as biochemical. To be noted: 20 μM DiFMUP substrate; catalytic core of human recombinant PTP; triplicates; read-out: IC50 value in respect of SHP-1. As for the experimental part:
(§1) The PTP Enzyme Assay aims at determining the extent of inhibition of PTPs, e.g. of PTP1B, SHP-1, SHP-2, GLEPP-1 or PTP-H1 in the presence of a test compound of formula (I) or (I′). The inhibition is illustrated by IC50 values which denote the concentration of test compound necessary to achieve an inhibition of 50% of said PTP's using the following concentration of the PTP substrate DiFMUP: • 5 μM DiFMUP for PTP1B and PTP-H1; • 20 μM DiFMUP for SHP-1 and SHP-2. • 30 μM DiFMUP for GLEPP-1. a) PTPs Cloning
(§2) The DiFMUP assay allows to follow the dephosphorylation of DiFMUP (6,8-DiFluoro-4-MethylUmbelliferyl Phosphate)—which is the PTP substrate—mediated by PTP into its stable hydrolysis product, i.e. DiFMU (6,8-difluoro-7-hydroxy coumarin). Due to its rather low pKa and its high quantum yield, DiFMU allows to measure both acidic and alkaline phosphatase activities with a great sensitivity.
(§3) Assays were performed in a 96 well plate format, using the catalytic core of a human recombinant PTP as the enzyme and 6,8-DiFluoro-4-MethylUmbelliferyl Phosphate (DiFMUP, Molecular Probes, D-6567) as a substrate. Compounds to be tested were dissolved in 100% DMSO at a concentration of 2 mM. Subsequent dilutions of the test compounds (to yield a concentration of 100, 30, 10, 3, 1, 0.3, 0.1, 0.03, 0.01, 0.001 μM) wore performed in 60% DMSO manually. 8 μl of diluted compound or vehicle (60% DMSO=control) was distributed to a black Costar 96 well plate. 42 μl of human recombinant PTP enzyme diluted in assay buffer (20 mM Tris HCl pH 7.5, 0.01% IGEPAL CA-630, 0.1 mM ethylenediaminetetracetic acid, 1 mM DL-Dithiothreitol) can be added to the dilutions of compound or vehicle (distributed to a black Costar 96 well plate), followed by 50 μl of DiFMUP diluted in the assay buffer. The reaction ran for 30 minutes at room temperature before reading the fluorescence intensity (integral or intensity) on a Perkin-Elmer Victor 2 spectrofluorimeter (excitation of 6,8-difluoro-7-hydroxy coumarin is at 355 nm, the emission at 460 nm, for 0.1 s). The percentage of inhibition is determined by measuring the relative fluorescence ion absence of a test compound (PTP inhibitor), i.e. with the solvent alone (5% DMSO). The IC50 values for inhibition were determined in triplicates.

The test system of the next test is db/db mice. Put plainly: In vivo assay in db/db mice (postprandial glycemia). The settings on record: 4 hrs after drug administration, expressed as a percentage of control (vehicle, Group 1). As for the experimental part:
The following assay aims at determining the anti-diabetic effect of the test compounds of formula (I) or (I′) in a model of postprandial glycemia in db/db mice, in vivo.
A total of 18 db/db mice (about 8-9 weeks; obtained from IFFACREDO, l'Arbreste, France) were fasted during 20 hours.
3 groups, each consisting of 6 animals were formed: • Group 1: The animals were administered (per os) a dose of 10 mL/kg of vehicle (control). • Group 2: The animals were administered (per os) a dose of 30 mg/kg of the test compound according to formula (I) solubilized in the vehicle. • Group 3: The animals were administered (per os) a dose of 100 mg/kg of the test compound according to formula (I) solubilized in the vehicle.
After oral administration of the compounds of formula (I) or (I′) solubilized or suspended in CarboxyMethylCellulose (0.5%), Tween 20 (0.25%) in water as vehicle, the animals had access to commercial food (D04, UAR, Villemoisson/Orge, France) ad libitum. The diabetic state of the mice was verified by determining the blood glucose level before fasting. Blood glucose and serum insulin levels were then determined 4 hrs after drug administration.
The determination of the blood glucose level was performed using a glucometer (Ascensia Dex^2, Bayer, ref 3956C).
The determination of the Insulin level was performed using an ELISA kit (Mercodia, ref 10-1149-10).
Changes in blood glucose and serum insulin of drug treated mice were expressed as a percentage of control (group 1: vehicle treated mice).

Another test addresses T2, SHP-2 (Homo sapiens, UniProt Q06124).
T2 construct: using the catalytic core of a human recombinant PTP as the enzyme
T2 sequence (Q06124 247-517 limits assumed): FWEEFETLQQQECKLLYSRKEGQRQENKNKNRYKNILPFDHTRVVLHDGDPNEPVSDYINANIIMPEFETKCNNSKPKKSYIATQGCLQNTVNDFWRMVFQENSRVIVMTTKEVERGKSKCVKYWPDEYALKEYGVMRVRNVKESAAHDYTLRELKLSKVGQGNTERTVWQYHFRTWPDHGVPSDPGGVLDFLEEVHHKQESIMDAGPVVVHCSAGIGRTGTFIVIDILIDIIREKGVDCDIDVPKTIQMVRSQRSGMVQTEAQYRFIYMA
The test is described as follows: PTP Enzyme Assay (DiFMUP), SHP-2. In kind it is biochemical. The settings on record: 20 μM DiFMUP substrate; catalytic core of human recombinant PTP; triplicates; read-out: IC50 value in respect of SHP-2. Here is the method: as §1, §2, §3

The target of the next test is T3, PTP-H1 (Homo sapiens, UniProt P26045).
T3 construct: using the catalytic core of a human recombinant PTP as the enzyme
T3 sequence (P26045 646-901 limits assumed): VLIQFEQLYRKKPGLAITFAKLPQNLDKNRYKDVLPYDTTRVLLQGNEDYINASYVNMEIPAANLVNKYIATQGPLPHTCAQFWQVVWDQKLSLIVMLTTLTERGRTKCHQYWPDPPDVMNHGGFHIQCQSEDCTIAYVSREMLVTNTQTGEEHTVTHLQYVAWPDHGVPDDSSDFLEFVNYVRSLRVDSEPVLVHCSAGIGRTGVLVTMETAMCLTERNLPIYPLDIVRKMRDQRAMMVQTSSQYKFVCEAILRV
The test is described as follows: PTP Enzyme Assay (DiFMUP), PTP-H1. It counts as biochemical. The settings on record: 5 μM DiFMUP substrate; catalytic core of human recombinant PTP; triplicates; read-out: IC50 value in respect of PTP-H1. Here is the method:
as §1, §2, §3

The target of the next test is T4, PTP1B (Homo sapiens, UniProt P18031).
T4 construct: using the catalytic core of a human recombinant PTP as the enzyme; made in house
T4 sequence (P18031 3-277 limits assumed): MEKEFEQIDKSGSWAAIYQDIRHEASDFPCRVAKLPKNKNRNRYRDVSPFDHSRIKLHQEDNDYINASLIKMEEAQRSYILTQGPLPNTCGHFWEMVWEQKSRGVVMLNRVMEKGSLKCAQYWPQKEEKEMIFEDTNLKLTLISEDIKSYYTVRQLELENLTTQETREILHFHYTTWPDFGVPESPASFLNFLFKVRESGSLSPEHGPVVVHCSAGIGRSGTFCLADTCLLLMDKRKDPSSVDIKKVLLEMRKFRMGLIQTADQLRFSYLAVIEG
The test is described as follows: PTP Enzyme Assay (DiFMUP), PTP1B. In kind it is biochemical. The settings on record: 5 μM DiFMUP substrate; catalytic core of human recombinant PTP; triplicates; read-out: IC50 value in respect of PTP1B. Here is the method: as §1
The cloning and expression of the catalytic domain e.g. of PTP1B, may be performed as described in J. Biol. Chem. 2000, 275(13), pp 9792-9796.
as §2, §3

Another test deals with T5, GLEPP-1 (Homo sapiens, UniProt Q16827).
T5 construct: using the catalytic core of a human recombinant PTP as the enzyme
T5 sequence (Q16827 938-1195 limits assumed): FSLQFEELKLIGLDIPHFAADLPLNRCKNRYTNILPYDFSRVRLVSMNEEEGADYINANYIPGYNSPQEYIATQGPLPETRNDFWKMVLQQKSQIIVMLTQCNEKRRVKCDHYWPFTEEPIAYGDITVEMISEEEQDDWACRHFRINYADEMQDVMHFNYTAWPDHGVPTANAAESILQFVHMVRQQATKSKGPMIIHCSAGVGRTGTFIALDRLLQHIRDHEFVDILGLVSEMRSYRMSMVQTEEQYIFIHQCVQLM
The test is described as follows: PTP Enzyme Assay (DiFMUP), GLEPP-1. It counts as biochemical. The settings on record: 30 μM DiFMUP substrate; catalytic core of human recombinant PTP; triplicates; read-out: IC50 value in respect of GLEPP-1. As for the experimental part:
as §1, §2, §3

Counter-ions that a name gives are not always drawn.

In general, IC50 refers to the midpoint of a concentration-inhibition curve. Take `CCCCCCCCC#Cc1ccc(CN(C(=O)CCC2CCCC2)c2ccc(O)c(C(=O)O)c2)cc1` [Example 2, 5-[(3-cyclopentylpropanoyl)(4-dec-1-ynylbenzyl)amino]-2-hydroxybenzoic acid. N-methyl-D-glucamine (i.e. 1-deoxy-1-(methylamino)glucitol) salt]: the concentration for half-maximal inhibition (IC50) at SHP-1 came out at 1200 nM; on SHP-2 it was 490 nM; at PTP-H1, 3370 nM; on PTP1B, 490 nM; on GLEPP-1, 610 nM. Also, the results for the “Decrease in blood glucose” value with db/db mice (Group 2: 30 mg/kg per os) and in the test on db/db mice (Group 3: 100 mg/kg per os) were 28% and 58%, respectively. Besides, the “Decrease in serum insulin” value with db/db mice (Group 2: 30 mg/kg per os) is recorded as 84%; in the test with db/db mice (Group 3: 100 mg/kg per os), 88%.
As to `CCCCCCCCC#Cc1ccc(CN(Cc2ccc(OCC(=O)O)c(C(=O)O)c2)C(=O)/C=C/c2ccccc2)cc1` [Example 16, 2-(carboxymethoxy)-5-({(4-dec-1-ynylbenzyl)[(2E)-3-3-phenylprop-2-enoyl]amino}methyl)benzoic acid], the half-inhibitory concentration (IC50) at SHP-1 was 1600 nM; at SHP-2, 1400 nM; at PTP-H1, 5700 nM; on PTP1B, 290 nM; on GLEPP-1, 210 nM.
`CCCCc1ccc(C#Cc2ccc(CN(C(=O)Cc3cccs3)c3ccc(F)c(C(=O)O)c3)cc2)cc1` [Example 68, 5-[{4-[(4-butylphenyl)ethynyl]benzyl}(2-thienylacetyl)amino]-2-fluorobenzoic acid, N-methyl-D-glucamine (i.e. 1-deoxy-1-(methylamino)glucitol) salt]: the IC50 at SHP-1 stood at 3700 nM; at SHP-2 it was 1900 nM; at PTP-H1, 9900 nM; on PTP1B, 490 nM; on GLEPP-1, 1580 nM.
Take `CCCCc1ccc(C#Cc2ccc(CN(C(=O)C(C)(C)C)c3ccc(C(=O)O)c(O)c3)cc2)cc1` [Example 76, 4-[{4-[(4-butylphenyl)ethynyl]benzyl}(2,2-dimethylpropanoyl)amino]-2-hydroxybenzoic acid, N-methyl-D-glucamine (i.e. 1-deoxy-1-(methylamino)glucitol) salt]: the IC50 on SHP-1 came to 3000 nM; on SHP-2, 2200 nM; at PTP-H1, 6300 nM; at PTP1B it was 970 nM; on GLEPP-1, 990 nM.

(Values after patent publication US7589232B2, “Alkynyl aryl carboxamides” (Laboratories Serono S.A., priority 2003, dated 2009).)
